Results as given in patent US12673975B2, “Cyclic peptide, cell scaffold material, cell separating material, and medium” (FUJIFILM Corporation, priority 2019, dated 2026).
Read-outs that look alike come from different tables or passages of the source. Starred links: 1 amine or outer side, 2 acyl side, 3 side chain; linkers in the order of their positions; H or OH if unused. Positions of bridges follow the written chain, without caps; N, C: chain ends. Non-standard residues stand in square brackets, D forms with d. Residues, ends and D or L forms follow the SMILES beside them. hCys = N[C@@H](CCS)C(=O)O; Orn = NCCC[C@H](N)C(=O)O; Dab = NCC[C@H](N)C(=O)O; X2 = O=C(C[*:1])[*:2]

Experiments:
human integrin αvβ5 = human integrin αvβ5 (Homo sapiens, UniProt P06756+P18084); experiment: Evaluation of integrin binding property (surface plasmon resonance, Biacore 3000, immobilized cyclic peptide)
human integrin αvβ5, sequence (P06756 31-1048): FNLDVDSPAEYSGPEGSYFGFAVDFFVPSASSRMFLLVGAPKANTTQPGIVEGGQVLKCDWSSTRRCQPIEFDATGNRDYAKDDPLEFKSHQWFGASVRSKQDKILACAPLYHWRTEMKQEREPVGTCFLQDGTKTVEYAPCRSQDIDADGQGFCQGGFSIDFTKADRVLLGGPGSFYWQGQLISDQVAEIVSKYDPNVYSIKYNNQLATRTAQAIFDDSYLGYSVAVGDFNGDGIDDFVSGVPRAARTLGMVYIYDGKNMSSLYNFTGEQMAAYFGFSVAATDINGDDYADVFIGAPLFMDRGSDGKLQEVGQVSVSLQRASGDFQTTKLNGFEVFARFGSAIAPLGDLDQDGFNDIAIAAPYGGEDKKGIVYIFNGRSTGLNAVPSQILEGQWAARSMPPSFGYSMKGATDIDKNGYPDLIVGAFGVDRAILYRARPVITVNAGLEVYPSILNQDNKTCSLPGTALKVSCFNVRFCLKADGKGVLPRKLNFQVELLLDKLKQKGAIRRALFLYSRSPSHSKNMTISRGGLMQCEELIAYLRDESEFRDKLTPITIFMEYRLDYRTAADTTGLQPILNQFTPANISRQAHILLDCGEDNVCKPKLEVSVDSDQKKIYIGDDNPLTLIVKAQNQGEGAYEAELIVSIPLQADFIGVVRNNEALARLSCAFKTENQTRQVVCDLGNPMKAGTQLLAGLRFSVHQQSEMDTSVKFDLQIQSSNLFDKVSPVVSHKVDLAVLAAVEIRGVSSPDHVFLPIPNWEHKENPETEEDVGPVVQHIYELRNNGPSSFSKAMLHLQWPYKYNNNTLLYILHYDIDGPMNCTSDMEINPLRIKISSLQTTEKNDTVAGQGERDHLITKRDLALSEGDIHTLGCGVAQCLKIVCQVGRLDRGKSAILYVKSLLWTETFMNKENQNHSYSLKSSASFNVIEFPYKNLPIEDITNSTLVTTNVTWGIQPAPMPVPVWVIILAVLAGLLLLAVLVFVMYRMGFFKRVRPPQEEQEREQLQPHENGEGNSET
human integrin αvβ5, sequence (P18084 24-799): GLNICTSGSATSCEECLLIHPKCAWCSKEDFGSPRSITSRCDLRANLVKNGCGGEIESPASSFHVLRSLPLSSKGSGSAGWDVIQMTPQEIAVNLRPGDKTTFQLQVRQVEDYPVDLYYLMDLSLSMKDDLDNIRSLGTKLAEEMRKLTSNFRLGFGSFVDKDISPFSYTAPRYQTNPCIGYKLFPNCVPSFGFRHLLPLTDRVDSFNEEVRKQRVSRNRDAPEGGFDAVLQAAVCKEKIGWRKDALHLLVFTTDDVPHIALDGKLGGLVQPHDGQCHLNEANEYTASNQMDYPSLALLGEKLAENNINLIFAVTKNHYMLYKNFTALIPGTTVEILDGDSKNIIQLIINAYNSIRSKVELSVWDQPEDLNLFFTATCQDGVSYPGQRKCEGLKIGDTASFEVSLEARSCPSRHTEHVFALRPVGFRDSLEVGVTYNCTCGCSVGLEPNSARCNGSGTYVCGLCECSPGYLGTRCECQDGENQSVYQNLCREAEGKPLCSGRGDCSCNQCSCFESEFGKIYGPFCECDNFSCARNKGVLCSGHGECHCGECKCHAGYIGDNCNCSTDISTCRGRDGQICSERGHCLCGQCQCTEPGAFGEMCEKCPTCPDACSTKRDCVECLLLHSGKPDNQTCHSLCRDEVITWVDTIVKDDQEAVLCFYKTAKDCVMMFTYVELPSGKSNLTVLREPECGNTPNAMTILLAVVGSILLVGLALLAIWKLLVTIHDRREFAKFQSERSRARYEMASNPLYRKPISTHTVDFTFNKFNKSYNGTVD
Protocol: A commercially available CMS (a carboxymethyl dextran introduction type, manufactured by GE Healthcare) sensor chip was set in Biacore 3000, which is a surface plasmon resonance apparatus manufactured by GE Healthcare, the sensor was stabilized at a flow rate of 10 μL/min of a HEPES (4-(2-hydroxyethyl)-1-piperazineethanesulfonic acid) buffer solution (20 mM HEPES-HCl, 150 mM NaCl, pH 7.4) for surface plasmon resonance (SPR), and 70 μL of a mixed aqueous solution of 0.2 M 1-(3-dimethylaminopropyl)-3-ethylcarbodiimide (EDC) and 0.04 M N-hydroxysuccinimide (NHS) was added thereto. Here, the concentration unit M represents mol/L, and the same applies hereinafter. Then, 20 μL of the sample solution of each of the above cyclic peptides diluted to 0.2 g/L with the HEPES buffer solution was supplied to the sensor chip, blocking treatment was subsequently carried out with an ethanolamine solution, and washing was carried out with a sodium hydroxide aqueous solution, whereby immobilization was carried out. However, only for the cyclic peptides 125, 126, and 127, in which the number of lysine residues having an amino group as the immobilizing functional group was zero, the amount of the sample solution to be supplied to the sensor chip was set to 500 μL instead of 20 μL. Further, 70 μL of the mixed aqueous solution of 0.2 M EDC and 0.04 M NHS was added to another flow channel of the same sensor chip without immobilizing the sample, and then blocking treatment and washing treatment were carried out. Hereinafter, the obtained immobilization-treated sensor chip is referred to as an “immobilization-treated sensor chip A”.
After adding human integrin αvβ5 for 10 minutes at 25° C., which was diluted to 30 nM using a HEPES buffer solution to which magnesium chloride was added to 5 mM, in each flow channel of the immobilization-treated sensor chip A prepared in (1) above, the same HEPES buffer solution (containing 5 mM magnesium chloride) was allowed to flow as a running buffer for 30 minutes, and measurement was carried out with Biacore 3000. Then, a regeneration treatment of removing human integrin αvβ5 was carried out by allowing a 0.5 M EDTA aqueous solution to flow through each flow channel for 10 minutes. Further, the above-described measurement process consisting of adding integrin for 10 minutes, allowing a running buffer to flow for 30 minutes, carrying out measurement with Biacore 3000, and carrying out regeneration treatment with 0.5 M EDTA aqueous solution was carried out in the same manner for 100 nM human integrin αvβ5, 300 nM human integrin αvβ5, and 1,000 nM human integrin αvβ5. Dissociation constant between the cyclic peptide and human integrin αvβ5 was calculated from the difference between the value measured by Biacore 3000 in the flow channel immobilized with the cyclic peptide and the value measured by Biacore 3000 in the flow channel unimmobilized with the cyclic peptide, in a case where each concentration of human integrin αvβ5 was allowed to flow, and the integrin binding property was evaluated according to the following evaluation standards. It is preferable that the evaluation result satisfies the evaluation standard A, B, or C.

[1] = Evaluation of molecule stability (alkali treatment, residual rate by LC/MS); assay type: physicochemical; settings: for Stability (molecule stability, residual rate of the cyclic peptide rank): alkali treatment, residual rate by LC/MS; for Performance evaluation: Stability (residual rate of cyclic peptide after alkali treatment): 500 μM peptide aqueous solution plus equivalent of 1 M sodium hydroxide, 15° C., 3 hours, LC/MS peak area
Protocol: The molecule stability of the cyclic peptide was evaluated by analyzing the alkali-treated cyclic peptide aqueous solution by liquid chromatography mass spectroscopy (LC/MS).
The alkali treatment was carried out by the following method. A 500 μM cyclic peptide aqueous solution was prepared, an equivalent of 1 M sodium hydroxide aqueous solution was added to this aqueous solution, and the resultant mixture was incubated at 15° C. for 3 hours to obtain an alkali-treated cyclic peptide aqueous solution. The cyclic peptide residual rate was calculated by setting the total area of all peaks of the cyclic peptide before alkali treatment in LC/MS to 100% and determining the proportion of the total area of all peaks in LC/MS of the alkali-treated cyclic peptide aqueous solution, and the molecule stability was evaluated according to the following evaluation standards. It is preferable that the evaluation result satisfies the evaluation standard A, B, or C.
The conditions of the LC/MS used for the evaluation of molecule stability were set as follows. • LC apparatus: Prominence series (pump, column oven, autosampler, detector) (manufactured by Shimadzu Corporation) • MS detector: LC/MS2010EV (manufactured by Shimadzu Corporation) • Column: Cadenza CD-C18, inner diameter 2.0 mm×length 250 mm, particle size: 3 μm (manufactured by Imtakt Corporation) • Eluent A: a solution (pH 3) containing 10 mM ammonium formate as a solute, where the solvent is 100% water. • Eluent B: a solution (pH 3) containing 10 mM ammonium formate as a solute, where the solvent is acetonitrile/water=90/10. • Flow rate: 0.2 mL/min • Injection volume: 4 μL • Gradient: 0% to 30%: Eluent B (0 to 30 minutes), 100%: Eluent B (30 to 40 minutes), 0%: Eluent B (40 to 60 minutes) • Column temperature: 45° C. • Ionization method: electrospray ionization (ESI) positive, ESI negative

[2] = surface plasmon resonance, immobilized cyclic peptide, human integrin αvβ5, read-out: Binding activity (integrin binding property, dissociation constant rank)
[3] = SPR, 25° C., HEPES buffer with 5 mM magnesium chloride, integrin 30-1,000 nM, read-out: Performance evaluation: Binding activity (dissociation constant between the cyclic peptide and human integrin αvβ5)

Row | Compound | Kd (human integrin αvβ5; [2]) [nM] | Kd (human integrin αvβ5; [3]) [nM] | Stability (molecule stability, residual rate of the cyclic peptide rank) [1] | Performance evaluation: Stability (residual rate of cyclic peptide after alkali treatment) [1]
1 | CC[C@H](C)[C@@H]1NC(=O)[C@@H](NC(=O)[C@H](C)NC(=O)[C@H](CCCCN)NC(=O)[C@H](CCCCN)NC(=O)[C@@H](N)CCCCN)CCSCC(=O)NCC[C@@H](C(=O)O)NC(=O)[C@H](C)NC(=O)[C@H](Cc2ccccc2)NC(=O)[C@H](CO)NC(=O)[C@H](CC(=O)O)NC(=O)CNC(=O)[C@H](CCCNC(=N)N)NC(=O)[C@@H]2CCCN2C1=O [Cyclic peptide 162, KKKA-(Hcy)-IPRGDSFA(Dab(acetyl))] (H-KKKA[hCys]IPRGDSFA[Dab]-OH; linker 5-14 via X2) | < 50 |  | A (The residual rate of the cyclic peptide is 70% or more.) | 
2 | CC[C@H](C)[C@@H]1NC(=O)[C@@H](NC(=O)[C@H](CCCCN)NC(=O)[C@H](CCCCN)NC(=O)[C@@H](N)CCCCN)CCSCC(=O)NCC[C@@H](C(=O)N[C@@H](C)C(=O)O)NC(=O)[C@H](CCCNC(=N)N)NC(=O)[C@H](Cc2ccccc2)NC(=O)[C@H](CC(N)=O)NC(=O)[C@H](CC(=O)O)NC(=O)CNC(=O)[C@H](CCCNC(=N)N)NC(=O)[C@@H]2CCCN2C1=O [Cyclic peptide 3, KKK-(Hcy)-IPRGDNFR(Dab(acetyl))A] (H-KKK[hCys]IPRGDNFR[Dab]A-OH; linker 4-13 via X2) |  | < 50 |  | A (The residual rate of the cyclic peptide is 70% or more.)
3 | CC[C@H](C)[C@@H]1NC(=O)[C@@H](NC(=O)[C@H](C)NC(=O)[C@H](CCCCN)NC(=O)[C@H](CCCCN)NC(=O)[C@@H](N)CCCCN)CCSCC(=O)NCC[C@@H](C(=O)NCC(=O)O)NC(=O)[C@H](C)NC(=O)[C@H](Cc2ccccc2)NC(=O)[C@H](CO)NC(=O)[C@H](CC(=O)O)NC(=O)CNC(=O)[C@H](CCCNC(=N)N)NC(=O)[C@@H]2CCCN2C1=O [Cyclic peptide 93, KKKA-(Hcy)-IPRGDSFA(Dab(acetyl))G] (H-KKKA[hCys]IPRGDSFA[Dab]G-OH; linker 5-14 via X2) |  | < 50 |  | A (The residual rate of the cyclic peptide is 70% or more.)
4 | CC[C@H](C)[C@@H]1NC(=O)[C@H](C)NC(=O)[C@@H](NC(=O)[C@H](CCCCN)NC(=O)[C@H](CCCCN)NC(=O)[C@@H](N)CCCCN)CCSCC(=O)NCC[C@@H](C(=O)N[C@@H](C)C(=O)O)NC(=O)[C@H](CCCNC(=N)N)NC(=O)[C@H](Cc2ccccc2)NC(=O)[C@H](CC(N)=O)NC(=O)[C@H](CC(=O)O)NC(=O)CNC(=O)[C@H](CCCNC(=N)N)NC(=O)[C@@H]2CCCN2C1=O [Cyclic peptide 15, KKK-(Hcy)-AIPRGDNFR(Dab(acetyl))A] (H-KKK[hCys]AIPRGDNFR[Dab]A-OH; linker 4-14 via X2) |  | 50 to 100 |  | A (The residual rate of the cyclic peptide is 70% or more.)
5 | CC[C@H](C)[C@@H]1NC(=O)[C@@H](NC(=O)[C@H](C)NC(=O)[C@H](CCCCN)NC(=O)[C@H](CCCCN)NC(=O)[C@@H](N)CCCCN)CCSCC(=O)NCC[C@@H](C(=O)N[C@@H](C)C(=O)O)NC(=O)[C@H]([C@@H](C)O)NC(=O)[C@H](Cc2ccccc2)NC(=O)[C@H]([C@@H](C)O)NC(=O)[C@H](CC(=O)O)NC(=O)CNC(=O)[C@H](CCCNC(=N)N)NC(=O)[C@@H]2CCCN2C1=O [Cyclic peptide 82, KKKA-(Hcy)-IPRGDTFT(Dab(acetyl))A] (H-KKKA[hCys]IPRGDTFT[Dab]A-OH; linker 5-14 via X2) |  | 50 to 100 |  | A (The residual rate of the cyclic peptide is 70% or more.)
6 | C[C@H](NC(=O)[C@H](CCCCN)NC(=O)[C@H](CCCCN)NC(=O)[C@@H](N)CCCCN)C(=O)N[C@H]1CCSCC(=O)NCC[C@@H](C(=O)O)NC(=O)[C@H](CCCNC(=N)N)NC(=O)[C@H](Cc2ccc(O)cc2)NC(=O)[C@H](CC(N)=O)NC(=O)[C@H](CC(=O)O)NC(=O)CNC(=O)[C@H](CCCNC(=N)N)NC(=O)[C@@H]2CCCN2C(=O)[C@H](CCC(=O)O)NC1=O [Cyclic peptide 45, KKKA-(Hcy)-EPRGDNYR(Dab(acetyl))] (H-KKKA[hCys]EPRGDNYR[Dab]-OH; linker 5-14 via X2) |  | 50 to 100 |  | A (The residual rate of the cyclic peptide is 70% or more.)

The next lines start with results.

Row | Kd (human integrin αvβ5; [2]) [nM] | Kd (human integrin αvβ5; [3]) [nM] | Compound | Stability (molecule stability, residual rate of the cyclic peptide rank) [1] | Performance evaluation: Stability (residual rate of cyclic peptide after alkali treatment) [1]
7 | < 50 |  | CC[C@H](C)[C@@H]1NC(=O)[C@@H](NC(=O)CNC(=O)[C@H](CCCCN)NC(=O)[C@H](CCCCN)NC(=O)[C@@H](N)CCCCN)CCSCC(=O)NCCCC[C@@H](C(=O)N[C@@H](C)C(=O)O)NC(=O)[C@H](CCCNC(=N)N)NC(=O)[C@H](Cc2ccccc2)NC(=O)[C@H]([C@@H](C)O)NC(=O)[C@H](CC(=O)O)NC(=O)CNC(=O)[C@H](CCCNC(=N)N)NC(=O)[C@@H]2CCCN2C1=O [Cyclic peptide 116, KKKG-(Hcy)-IPRGDTFR(Lys(acetyl))A] (H-KKKG[hCys]IPRGDTFRKA-OH; linker 5-14 via X2) | A (The residual rate of the cyclic peptide is 70% or more.) | 
8 | < 50 |  | CC[C@H](C)[C@@H]1NC(=O)[C@@H](NC(=O)CNC(=O)[C@H](CCCCN)NC(=O)[C@H](CCCCN)NC(=O)[C@@H](N)CCCCN)CCSCC(=O)NCCC[C@@H](C(=O)N[C@@H](C)C(=O)O)NC(=O)[C@H](CCCNC(=N)N)NC(=O)[C@H](Cc2ccccc2)NC(=O)[C@H]([C@@H](C)O)NC(=O)[C@H](CC(=O)O)NC(=O)CNC(=O)[C@H](CCCNC(=N)N)NC(=O)[C@@H]2CCCN2C1=O [Cyclic peptide 115, KKKG-(Hcy)-IPRGDTFR(Orn(acetyl))A] (H-KKKG[hCys]IPRGDTFR[Orn]A-OH; linker 5-14 via X2) | A (The residual rate of the cyclic peptide is 70% or more.) | 
9 |  | < 50 | CC(C)C[C@@H]1NC(=O)[C@@H](NC(=O)CNC(=O)[C@H](CCCCN)NC(=O)[C@H](CCCCN)NC(=O)[C@@H](N)CCCCN)CCSCC(=O)NCC[C@@H](C(=O)N[C@@H](C)C(=O)O)NC(=O)[C@H](CCCNC(=N)N)NC(=O)[C@H](Cc2ccccc2)NC(=O)[C@H]([C@@H](C)O)NC(=O)[C@H](CC(=O)O)NC(=O)CNC(=O)[C@H](CCCNC(=N)N)NC(=O)[C@@H]2CCCN2C1=O [Cyclic peptide 71, KKKG-(Hcy)-LPRGDTFR(Dab(acetyl))A] (H-KKKG[hCys]LPRGDTFR[Dab]A-OH; linker 5-14 via X2) |  | A (The residual rate of the cyclic peptide is 70% or more.)
